According to patent publication US7205383B2, “Peptide ligands of leukocyte integrins” (Karyon-CTT Ltd., priority 2001, dated 2007):
Ends that are not written are not given here.

Key:
[1] = molecular target: T1, αMβ2 integrin (Mac-1) (Homo sapiens, UniProt P11215); assay: Phage display biopanning on purified integrin; assay type: binding; details: phage bound to αMβ2 integrin, CX7C and CX9C libraries, randomly selected clones
T1 construct: from tissue; host or cells: blood buffy coats (leukocytes)
Method: The αMβ2 integrin was purified by antibody affinity chromatography from buffy coats obtained from Finnish Red Cross Blood Transfusion Service as described previously (Li et al., 1995). Integrin diluted in Tris-buffered saline (TBS)/1 mM MnCl2 was coated onto microtiter wells overnight at 4° C. using one μg per well in the first biopanning and 100, 10 and 1 ng in subsequent pannings. The wells were blocked with 5% BSA in TBS for 1 h at 22° C. and then washed five times with TBS. Biopanning was performed using CX7C and CX9C phage peptide libraries essentially as described (Koivunen et al., 1994). The construction of libraries was modified so that the single-stranded DNA encoding degenerate sequences was converted into a double-stranded form using 5 cycles of PCR with only the reverse primer and then 11 cycles with both the reverse and forward primer. A total of 6 μg of the double-stranded oligonucleotide was purified using QIAGEN PCR purification kit and ligated with 42 μg of the Fuse5 phage vector. The number of recombinants in the libraries was more than 10^9. Phage binding, elution and subsequent amplification in E. coli were repeated five times, and after each panning bacterial colonies were picked up and stored in a 10 μl volume of TBS in microtiter wells at −20° C. For direct colony sequencing, one μl aliquots of the thawed samples were subjected to PCR with 10 pmol each of the forward primer 5′ […] 3′ (SEQ ID NO: 9) and the reverse primer 5′ […] 3′ (SEQ ID NO: 10). The PCR conditions were 92° C. for 30 s, 60° C. for 30 s, and 72° C. for 60 s, and the cycle number was 35. One μl aliquot of the PCR reaction was taken for sequencing using 15 pmol of either one of the primers and analyzed on an ABI 310 apparatus (PE Applied Biosystems, Foster City, Calif.).
After the fifh round of selection, the CX7C library gave a 600-fold enrichment and CX9C a 1000-fold enrichment of phage bound to the integrin in comparison to background. […] Four of them contained the LLG tripeptide motif. The two sequences most strongly enriched were CPCFLLGCC (SEQ ID NO: 3) (LLG-C4) and […] (SEQ ID NO: 11), each observed 15 times in the randomly selected clones, and these were the only clones remaining after searching for high affinity binders by using low integrin coating concentrations.

[2] = tested on: THP-1 cells (β2 integrins); details: for competition of THP-1 cell adhesion on LLG-C4-GST substratum: soluble pentapeptides, CLLGC at concentrations of 1 mM or higher
Method: In FIG. 2(A), phorbol ester-activated THP-1 cells were allowed to bind for 60 min to microtiter wells coated with LLG-C4-GST, GST, or albumin. EDTA was included at a 2.5 mM concentration. The bound cells were determined by the assay measuring cellular phosphatase activity. The data are the means ±SD from triplicate wells.
In FIG. 2(B), THP-1 cells were mixed with each antibody against the β1, β2, β3, αL, αM, or αX integrin subunit as indicated at a concentration of […]. An aliquot of cells was then transferred to wells coated with LLG-C4-GST and incubated for 60 min at 37° C. Following washing the bound cells were determined by the phosphatase assay. The results are the mean % adhesion ±SD of 2–4 independent experiments each done in triplicate wells.
In FIG. 3(A), TBP-1 cells were mixed in suspension with the peptide containing either the C(1–8;3–9) or C(1–9;3–8) disulfide. The final concentrations of the peptides are indicated. Cells were then incubated for 60 min at 37° C. in microtiter wells coated with LLG-C4-GST. After washing the wells, the bound cells were quantitated by the phosphatase assay. The results are the mean ±SD from triplicate wells.
In FIG. 3(B), THP-1 cell binding to LLG-C4-GST was examined in the presence of the C(1–8;3–9), CLLGC (SEQ ID NO: 4) or the CAAGC (SEQ ID NO: 5) peptide. The synthetic peptides were used at the concentrations indicated. Following a 60 min incubation the wells were washed and the bound cells were determined by the phosphatase assay.
(§1) Fibrinogen, fibronectin, von Wrlnebrand factor, type IV collagen, GST fusion proteins, Fc fusion proteins or synthetic peptides were coated on microtiter wells at a concentration of 2 μg in 50 μl TBS unless otherwise indicated. A recombinant von Willebrand factor and a capturing antibody to it kindly provided by Drs. J. J. Sixma and Ph. G. de Groot (University Medical Center Utrecht, the Netherlands) were also used. To prepare polymerized peptides, glutaraldehyde was added at a final concentration of 0.25%. The wells were saturated with 5% BSA and then washed five times with PBS. Prior to adhesion assays, cells were treated with 50 nM 40-Phorbol 12,13-dibutyrate or with 200 μM P1 peptide (Kotovuori et al., 1999) in serum-free medium for 30 min at room temperature to activate the integrins. Alternatively, cells were stimulated for 60 min at 37° C. with the phorbol ester (50 nM) and the C(1–8;3–9) and RGD-4C peptides each at a 2.5 μM concentration, after which the peptides were removed by washing with PBS/2.5 mM EDTA. Cells were incubated in the microtiter wells (100 000 cells per well) for 60 min at 37° C. in the absence or presence of competing peptides, antibodies or EDTA. Unbound cells were removed by gently washing with PBS and pressing the plate against paper towels. The bound cells were determined by an assay measuring cellular phosphatase activity. Briefly, 100 μl of 50 mM sodium acetate buffer, pH 5.0, containing 1% Triton X-100 and 6 mg/ml p-nitrophenyl phosphate was added per well and incubated for 1 h at 37° C. The reaction was stopped with 50 μl of 1 M NaOH. The absorbance at 405 nm was read on a microplate reader. Alternatively, the attached cells were stained with Crystal Violet essentially as described (Mould et al., 1995).

[3] = tested on: THP-1 cells on von Willebrand factor; assay type: cell-based; details: 500 μM; data not shown
Method: In FIG. 5(A), THP-1 cell binding to von Wirebrand factor was examined in the presence of antibodies against the β2 (7E4), αvβ3 (LM609) or αIIbβ3 (P2) integrins. Following a 60 min incubation in von Willebrand factor-coated wells, the bound cells were determined. The data are the mean ±SD of triplicate wells. The experiment was repeated three times.
In FIG. 5(B), TRP-1 cells were allowed to bind to microtiter wells coated with von Willebrand factor, type IV collagen, or fibronectin. The C(1–8;3–9) peptide was included as a competitor in the concentrations described. The bound cells were determined by the phosphatase assay. The data are the mean ±SD of triplicate wells and were similar in four other experiments.
as §1, with “Unbound cells were removed by gently washing with PBS and pressing the plate against paper towels.” left out, “Briefly, 100 μl of 50 mM sodium acetate buffer, pH 5.0, containing 1% Triton X-100 and 6 mg/ml p-nitrophenyl phosphate was added per well and incubated for 1 h at 37° C. The reaction was stopped with 50 μl of 1 M NaOH.” left out, “Alternatively, the attached cells were stained with Crystal Violet essentially as described (Mould et al., 1995).” left out

[4] = tested on: THP-1 cells; assay: Transwell cell migration assay, LLG-C4-GST-coated filters; assay type: cell-based; details: 10% serum, 18 h
Method: The in vitro migration of THP-1 cells was studied in closely physiological conditions containing 10% serum to not interfere with adhesive properties of cells. Both the upper and lower surfaces of 8 μm pore size Transwell filters were coated with fibrinogen, LLG-C4-GST, or GST at a concentration of 40 μg/ml overnight at 4° C. Free binding sites were blocked by incubation with 5% BSA/TBS. THP-1 cells (5×10^4 in 100 μl) were plated on the upper compartment in 10% FCS-containing medium. The C(1–8;3–9) or C(1–9;3–8) peptide were included at a concentration of 200 μM. The lower compartment was filled with 750 μl of 10% FCS-containing medium. Following a culture for 18 h at 37° C. the filters were immersed in methanol for 15 min, in water for 10 s, and in 0.1% toluidine blue for 5 min. The filters were then washed 3–5 times with water until cell staining was clear. Cells were removed from the upper surface of the filter with a cotton swap, and cells migrated on the lower surface were counted microscopically. Student's t-test was used for statistical analysis.

[5] = molecular target: T2, αM subunit I-domain (Homo sapiens, UniProt P11215); assay: I-domain binding assay; details: for binding to isolated I-domain of the αM subunit: 0.01–100 μg/ml, 60 min; for inhibition of LLG-C4-GST binding to the I-domain: LLG-C4-GST 10 μg/ml, peptides 100 μM, EDTA 2.5 mM
T2 construct: GST (cleaved yes); made in house; host or cells: E. coli
Method: In FIG. 1(B), LLG-C4-GST or GST was incubated for 60 min in microtiter wells coated with purified αM subunit I-domain. The concentrations of GST proteins were as indicated. After washing, the bound GST was determined with anti-GST antibodies. The results are means ±SD from triplicate wells. The results were similar in two other experiments.
After a 60 min incubation, the wells were washed and the binding was determined with anti-GST antibodies. The results are the means ±SD from triplicate wells.
(§2) Integrin was immunocaptured on microtiter wells that were coated with the αM subunit antibodies OKM1 or MEM170, the αx subunit antibody TS2/4 or non-specific IgG (Dako, Carpinteria, Calif.). The antibodies were coated at a concentration of 10 μg/ml in TBS overnight at 4° C. After saturation of the wells with 5% BSA, a 200 μl aliquot of the buffy coat lysate in 1% octylglucoside/1 mM MnCl2/TBS was allowed to incubate for 2 h at 4° C. The wells were then washed five times with the octylglucoside-containing buffer. LLG-C4-GST or control GST was incubated at a concentration of 10 μg/ml in 25 mM octylglucoside TBS/1 mM MnCl2 for an hour. Following washing of the wells, the bound GST was determined with anti-GST antibodies (Amersham Pharmacia), which were labeled with an Eu^3+-chelate according to the instructions of the manufacturer (Wallac, Turku, Finland). The Eu^3+-fluorescence was measured with a 1230 Arcus fluorometer (Wallac). For examination of the I-domain binding, we used the recombinant αM I-domain expressed as a GST fusion protein in E. coli as described (Ueda et al., 1994). […] The I-domain was coated on microtiter wells at a concentration of 20 μg/ml, and the binding of LLG-C4-GST and GST was studied.

[6] = tested on: αXβ2 integrin-transfected L cells; assay: Adhesion of αXβ2 integrin-transfected L cells to LLG-C4-GST; assay type: cell-based, mouse
Method: as §1, with “Unbound cells were removed by gently washing with PBS and pressing the plate against paper towels.” left out, “Briefly, 100 μl of 50 mM sodium acetate buffer, pH 5.0, containing 1% Triton X-100 and 6 mg/ml p-nitrophenyl phosphate was added per well and incubated for 1 h at 37° C. The reaction was stopped with 50 μl of 1 M NaOH.” left out, “Alternatively, the attached cells were stained with Crystal Violet essentially as described (Mould et al., 1995).” left out

[7] = tested on: L929, K562, SKOV-3, KS6717 and Eahy96 cells; assay: Adhesion of non-leukocytic cell lines to immobilized peptide or fusion protein; assay type: cell-based; details: cells pretreated with phorbol ester or not; data not shown
Method: as §1, with “Unbound cells were removed by gently washing with PBS and pressing the plate against paper towels.” left out, “Briefly, 100 μl of 50 mM sodium acetate buffer, pH 5.0, containing 1% Triton X-100 and 6 mg/ml p-nitrophenyl phosphate was added per well and incubated for 1 h at 37° C. The reaction was stopped with 50 μl of 1 M NaOH.” left out, “Alternatively, the attached cells were stained with Crystal Violet essentially as described (Mould et al., 1995).” left out

[8] = molecular target: T3, αMβ2 integrin (Homo sapiens, UniProt P11215); assay: Integrin binding assay, immunocaptured integrin (MEM170 or OKM1); details: for binding of GST protein to immunocaptured αMβ2 integrin: 10 μg/ml, 1 mM MnCl2, integrin captured with MEM170 or OKM1, anti-GST detection
T3 construct: integrin from a blood cell lysate was immunocaptured on microtiter wells; from tissue; host or cells: blood buffy coat lysate in octylglucoside
Method: Purified LLG-C4-GST or GST control (2 μg/well) was allowed to bind for 60 min in the absence or presence of EDTA. After washing, the bound GST protein was determined by using anti-GST antibodies. […] The experiment was repeated three times with similar results.
as §2

## CWKLLGSEEEC (Stronly enriched sequence)
[1]
  number of isolated nucleotide sequences encoding each peptide: (15)
[1]; listed as CWKLGSEEEC
  number of isolated nucleotide sequences encoding each peptide: 15

## CLLGC (Synthetic peptide seen in Fig. 3B)
[2]
  competition of THP-1 cell adhesion on LLG-C4-GST substratum: readily inhibited cell adhesion
[3]
  inhibition of THP-1 binding to von Willebrand factor at 500 μM: inhibited

## LLG-C4-GST: LLG-C4 nonapeptide expressed as GST fusion protein in E. coli (CPCFLLGCC-{GST}; cysteine pairing not given here)
[4]
  cell migration on LLG-C4-GST compared with other coatings: more efficient than on fibronectin or fibrinogen coatings
[4]; filter coated at 40 μg/ml
  fold more cells migrated on LLG-C4-GST substratum than on control GST substratum: Approximately 10 fold
[2]; protein coated on microtiter wells, 60 min
  binding of phorbol ester-activated THP-1 cells to coated protein: efficiently bound
[5]
  binding to isolated I-domain of the αM subunit: concentration-dependent binding
[6]; p=0.016
  difference in binding of αXβ2-transfected L cells to LLG-C4-GST vs. GST: statistically significant
[7]
  binding of non-leukocytic cell lines not expressing β2 integrins: showed no binding
[8]
  binding of GST protein to immunocaptured αMβ2 integrin: bound to the αMβ2 integrin in a divalent cation-sensitive manner

## CPEDLYFFC (Phage sequence bound to the alphaMbeta2 integrin (Mac-1))
[1]
  number of isolated nucleotide sequences encoding each peptide: (3)

## CWHKDLLGC (Phage sequence bound to the alphaMbeta2 integrin (Mac-1))
[1]
  number of isolated nucleotide sequences encoding each peptide: (4)

## CAAGC (Synthetic peptide seen in Fig. 3B) [reference compound]
[2]
  competition of THP-1 cell adhesion on LLG-C4-GST substratum: weak competitor of cell adhesion
[3]
  inhibition of THP-1 binding to von Willebrand factor at 500 μM: not

## LLG-C4 (2): synthetic LLG-C4 preparation, inactive apparently due to disadvantageous disulfide bonding (CPCFLLGCC; disulfide (positions not given here); not fully specified)
[5]
  inhibition of LLG-C4-GST binding to the I-domain: did not inhibit LLG-C4-GST binding to the I-domain

## O=C(O)CN(CCN(CC(=O)O)CC(=O)O)CC(=O)O [EDTA, reference compound]
[2]; EDTA 2.5 mM
  effect of EDTA on THP-1 binding on LLG-C4-GST: completely abolished the binding
[5]
  inhibition of LLG-C4-GST binding to the I-domain: blocked the binding
[6]; competitor
  inhibition of binding of αXβ2-transfected L cells to LLG-C4-GST: inhibited
[8]; EDTA present
  inhibition of LLG-C4-GST binding to immunocaptured αMβ2 integrin: inhibited the binding of LLG-C4-GST to the integrin

## GST: control GST protein
[5]
  binding to isolated I-domain of the αM subunit: did not bind
[8]
  binding of GST protein to immunocaptured αMβ2 integrin: not GST alone

## LLG-C4 (1): air-oxidised synthetic biscyclic LLG-C4 preparation, highly active (CPCFLLGCC; disulfide (positions not given here))
[5]
  inhibition of LLG-C4-GST binding to the I-domain: blocked the ability of the I-domain to bind the LLG-C4-GST

## CPPDLFWYC (Phage sequence bound to the alphaMbeta2 integrin (Mac-1))
[1]
  number of isolated nucleotide sequences encoding each peptide: (4)
